From US20150004134A1, “TREATMENT OF CANCER WITH HETEROCYCLIC INHIBITORS OF GLUTAMINASE” (Calithera Biosciences, Inc., priority 2012, published 2015)

Tested on: P493-6 (myc "on") cells
Assay: Cell Proliferation Assay
Assay type: cell-based
Conditions: P493-6, 72 h, read-out: Cell prolif P493 72 h IC50, P493 cells, 72 h
Experimental: P493-6 (myc “on”) cells were maintained in growth media (RPMI-1640, 10% FBS, 2 mM glutamine, 100 units/ml Penicillin and 100 μg/ml streptomycin) at 37° C. with 5% CO2. For compound assay, P493-6 cells were plated in 96-well V-bottom plates on the day of compound addition in 50 μl of growth media at a cell density of 200,000 cells/ml (10,000 cells/well). Compounds were serially diluted in 100% DMSO at 200-times the final concentration. Compounds were diluted 100-fold into growth media and then 50 μl of this mixture was added to cell plates making the final concentration of DMSO 0.5%. Cells were incubated with compound for 72 hrs at 37° C. with 5% CO2 and analyzed for antiproliferative effects either by Cell Titer Glo (Promega) or FACS analysis using the Viacount (Millipore) kit on the Guava instrument.

Compound	IC50 [nM]
O=C(Cc1ccccc1)Nc1nnc(CCSCCc2nnc(NC(=O)Cc3ccccc3)s2)s1 [Compound 1, N,N′-(5,5′-(thiobis(ethane-2,1-diyl))bis(1,3,4-thiadiazole-5,2-diyl))bis(2-phenylacetamide)]	470
CC(C)CC(=O)Nc1nnc(CCSCCc2nnc(NC(=O)CC(C)C)s2)s1 [Compound 4]	> 50000
CC(=O)OCC(=O)Nc1nnc(CCSCCc2nnc(NC(=O)COC(C)=O)s2)s1 [Compound 5]	> 50000
CN(C(=O)Cc1ccccc1)c1nnc(CCSCCc2nnc(N(C)C(=O)Cc3ccccc3)s2)s1 [Compound 6]	2700
CCCC(=O)OCN(C(=O)Cc1ccccc1)c1nnc(CCSCCc2nnc(NC(=O)Cc3ccccc3)s2)s1 [Compound 7]	1000
CCCC(=O)OCN(C(=O)Cc1ccccc1)c1nnc(CCSCCc2nnc(N(COC(=O)CCC)C(=O)Cc3ccccc3)s2)s1 [Compound 8]	1600
CC(CCc1nnc(NC(=O)Cc2ccccc2)s1)CCc1nnc(NC(=O)Cc2ccccc2)s1 [Compound 9]	> 50000
CC(C)(CCc1nnc(NC(=O)Cc2ccccc2)s1)CCc1nnc(NC(=O)Cc2ccccc2)s1 [Compound 10]	> 50000
O=C(Cc1ccccc1)Nc1nnc(CCCCCc2nnc(NC(=O)Cc3ccccc3)s2)s1 [Compound 11]	890
O=C(CN1CCOCC1)Nc1nnc(CCSCCc2nnc(NC(=O)CN3CCOCC3)s2)s1 [Compound 12]	36000
CC(=O)OCC(C(=O)Nc1nnc(CCSCCc2nnc(NC(=O)C(COC(C)=O)c3ccccc3)s2)s1)c1ccccc1 (stereo not drawn) [Compound 14]	1800
CC(C)(C)C(=O)OCN(C(=O)Cc1ccccc1)c1nnc(CCSCCc2nnc(NC(=O)Cc3ccccc3)s2)s1 [Compound 15]	1200
CC(C)(C)C(=O)OCN(C(=O)Cc1ccccc1)c1nnc(CCSCCc2nnc(N(COC(=O)C(C)(C)C)C(=O)Cc3ccccc3)s2)s1 [Compound 16]	800
C=CCCC(=O)Nc1nnc(CCSCCc2nnc(NC(=O)CCC=C)s2)s1 [Compound 18]	8200
CC(C(=O)Nc1nnc(CCSCCc2nnc(NC(=O)C(C)c3ccccc3)s2)s1)c1ccccc1 (stereo not drawn) [Compound 19]	1700
CC(C(=O)Nc1nnc(CCSCCc2nnc(N)s2)s1)c1ccccc1 (stereo not drawn) [Compound 20]	2600
O=C(Cc1ccccc1)Nc1nnc(CCCCc2nnc(NC(=O)Cc3ccccc3)s2)s1 [Compound 21, N,N′-[5,5′-(butane-1,4-diyl)-bis(1,3,4-thiadiazole-5,2-diyl)]-bis(2-phenylacetamide)]	20
O=C(Nc1nnc(CCSCCc2nnc(NC(=O)[C@@H]3CCCN3C(=O)C(F)(F)F)s2)s1)[C@@H]1CCCN1C(=O)C(F)(F)F [Compound 22]	> 50000
Nc1nnc(CCSCCc2nnc(NC(=O)[C@@H]3CCCN3C(=O)C(F)(F)F)s2)s1 [Compound 23]	> 50000
CC(=O)Nc1nnc(CCSCCc2nnc(NC(=O)Cc3ccccc3)s2)s1 [Compound 25]	1500
CC(=O)OCC(=O)Nc1nnc(CCSCCc2nnc(NC(=O)Cc3ccccc3)s2)s1 [Compound 26]	700

Compound	IC50 [nM]
O=C(Cc1ccccc1)Nc1nnc(CCSCCc2nnc(N(COC(=O)OCCCN3CCOCC3)C(=O)Cc3ccccc3)s2)s1 [Compound 27]	470
O=C(Nc1nnc(CCCCCc2nnc(NC(=O)C(CO)c3ccccc3)s2)s1)C(CO)c1ccccc1 (stereo not drawn) [Compound 30]	2500
COC(=O)c1cccc(NC(=O)Nc2nnc(CCSCCc3nnc(NC(=O)Nc4cccc(C(=O)OC)c4)s3)s2)c1 [Compound 31]	4300
CC(C)[C@H](N)C(=O)Nc1nnc(CCSCCc2nnc(NC(=O)Cc3ccccc3)s2)s1 [Compound 32]	11000
CC(C)[C@H](NC(=O)OC(C)(C)C)C(=O)Nc1nnc(CCSCCc2nnc(NC(=O)Cc3ccccc3)s2)s1 [Compound 33]	5300
CC(C)[C@H](NC(=O)OC(C)(C)C)C(=O)Nc1nnc(CCSCCc2nnc(NC(=O)[C@@H](NC(=O)OC(C)(C)C)C(C)C)s2)s1 [Compound 34]	> 50000
O=C(Cc1ccccc1)Nc1nnc(CCSCCc2nnc(NC(=O)[C@@H]3CCCN3C(=O)C(F)(F)F)s2)s1 [Compound 35]	3800
O=C(Nc1nnc(CCSCCc2nnc(NC(=O)C3CCc4ccccc4C3)s2)s1)C1CCc2ccccc2C1 (stereo not drawn) [Compound 37]	> 50000
O=C(Nc1nnc(CCSCCc2nnc(NC(=O)C3CC4CCC3C4)s2)s1)C1CC2CCC1C2 (stereo not drawn) [Compound 38]	3200
O=C(Nc1nnc(CCSCCc2nnc(NC(=O)C3CCCO3)s2)s1)C1CCCO1 (stereo not drawn) [Compound 39]	4500
O=C(Nc1nnc(CCSCCc2nnc(NC(=O)C3CCCC3)s2)s1)C1CCCC1 [Compound 40]	560
O=C(Nc1nnc(CCSCCc2nnc(NC(=O)C3COc4ccccc4O3)s2)s1)C1COc2ccccc2O1 (stereo not drawn) [Compound 41]	33000
CC(C)[C@H](NC(=O)OC(C)(C)C)C(=O)Nc1nnc(CCCCc2nnc(NC(=O)[C@@H](NC(=O)OC(C)(C)C)C(C)C)s2)s1 [Compound 42]	> 50000
O=C(COc1ccccc1)Nc1nnc(CCCCc2nnc(NC(=O)COc3ccccc3)s2)s1 [Compound 43]	> 50000
CC(CCc1nnc(NC(=O)Cc2ccccc2)s1)Cc1nnc(NC(=O)Cc2ccccc2)s1 (stereo not drawn) [Compound 44]	2600
O=C(Nc1nnc(CCCCc2nnc(NC(=O)C(F)(F)F)s2)s1)C(F)(F)F [Compound 45]	> 50000
CC(C)(C)OC(=O)N[C@@H](C(=O)Nc1nnc(CCSCCc2nnc(NC(=O)[C@H](NC(=O)OC(C)(C)C)c3ccccc3)s2)s1)c1ccccc1 [Compound 46]	16000
N[C@@H](C(=O)Nc1nnc(CCSCCc2nnc(NC(=O)[C@H](N)c3ccccc3)s2)s1)c1ccccc1 [Compound 47]	35000
O=C(CC1CCCCC1)Nc1nnc(CCSCCc2nnc(NC(=O)CC3CCCCC3)s2)s1 [Compound 48]	420
C[C@H](NC(=O)OC(C)(C)C)C(=O)Nc1nnc(CCSCCc2nnc(NC(=O)[C@H](C)NC(=O)OC(C)(C)C)s2)s1 [Compound 49]	17000
O=C(Nc1nnc(CCSCCc2nnc(NC(=O)C3Cc4ccccc4O3)s2)s1)C1Cc2ccccc2O1 (stereo not drawn) [Compound 50]	8200

Compound	IC50 [nM]
O=C(Nc1nnc(CCCCc2nnc(NC(=O)C3Cc4ccccc4O3)s2)s1)C1Cc2ccccc2O1 (stereo not drawn) [Compound 51]	1300
O=C(Nc1nnc(CCCCc2nnc(NC(=O)C3COc4ccccc4O3)s2)s1)C1COc2ccccc2O1 (stereo not drawn) [Compound 52]	30000
O=C(Nc1nnc(CCCCc2nnc(NC(=O)C3CCCC3)s2)s1)C1CCCC1 [Compound 53]	34000
O=C(Nc1nnc(CCCCc2nnc(NC(=O)C3CCCO3)s2)s1)C1CCCO1 (stereo not drawn) [Compound 54]	1600
O=C(Nc1nnc(CCCCc2nnc(NC(=O)C3CC4CCC3C4)s2)s1)C1CC2CCC1C2 (stereo not drawn) [Compound 55]	3900
O=C(CC1CCCC1)Nc1nnc(CCSCCc2nnc(NC(=O)CC3CCCC3)s2)s1 [Compound 58]	3700
O=C(Cn1cccn1)Nc1nnc(CCCCc2nnc(NC(=O)Cn3cccn3)s2)s1 [Compound 60]	14000
O=C(Nc1nnc(CCCCc2nnc(NC(=O)C3(C(F)(F)F)CC3)s2)s1)C1(C(F)(F)F)CC1 [Compound 62]	19000
CC(C)(C)OC(=O)N1CCN(C(C(=O)Nc2nnc(CCCCc3nnc(NC(=O)C(c4ccccc4)N4CCN(C(=O)OC(C)(C)C)CC4)s3)s2)c2ccccc2)CC1 (stereo not drawn) [Compound 63]	2600
O=C1CC(C(=O)Nc2nnc(CCCCc3nnc(NC(=O)C4CC(=O)c5ccccc54)s3)s2)c2ccccc21 (stereo not drawn) [Compound 64]	230
COC(C(=O)Nc1nnc(CCCCc2nnc(NC(=O)C(OC)c3ccccc3)s2)s1)c1ccccc1 (stereo not drawn) [Compound 65]	520
COC(C(=O)Nc1nnc(CCSCCc2nnc(NC(=O)C(OC)c3ccccc3)s2)s1)c1ccccc1 (stereo not drawn) [Compound 67]	1800
O=CO[C@@H](C(=O)Nc1nnc(CCCCc2nnc(NC(=O)[C@H](OC=O)c3ccccc3)s2)s1)c1ccccc1 [Compound 68]	340
O=C(Nc1nnc(CCCCc2nnc(NC(=O)C(O)Cc3ccccc3)s2)s1)C(O)Cc1ccccc1 (stereo not drawn) [Compound 69]	330
CC(C)(C)OC(=O)N1CCN(C(C(=O)Nc2nnc(CCSCCc3nnc(NC(=O)Cc4ccccc4)s3)s2)c2ccccc2)CC1 (stereo not drawn) [Compound 70]	3400
CC(=O)O[C@H](C(=O)Nc1nnc(CCSCCc2nnc(NC(=O)[C@@H](OC(C)=O)c3ccccc3)s2)s1)c1ccccc1 [Compound 71]	6900
O=C(Cc1ccccc1)Nc1nnc(CCCc2nnc(NC(=O)Cc3ccccc3)s2)s1 [Compound 72, N,N′-[5,5′-(propane-1,3-diyl)-bis(1,3,4-thiadiazole-5,2-diyl)]-bis(2-phenylacetamide)]	470
O=C(Nc1nnc(CCCCc2nnc(NC(=O)C(c3ccccc3)N3CCNCC3)s2)s1)C(c1ccccc1)N1CCNCC1 (stereo not drawn) [Compound 77]	34000
O=C(Cc1ccccc1)Nc1nnc(CCSCCc2nnc(NC(=O)C(c3ccccc3)N3CCNCC3)s2)s1 (stereo not drawn) [Compound 78]	10000
O=C(Nc1nnc(CCSCCc2nnc(NC(=O)C(c3ccccc3)N3CCNCC3)s2)s1)C(c1ccccc1)N1CCNCC1 (stereo not drawn) [Compound 79]	2000
O=C(Nc1nnc(CCCCc2nnc(NC(=O)[C@H](O)c3ccccc3)s2)s1)[C@H](O)c1ccccc1 [Compound 80]	1300

Same assay, conditions: P493-6, read-out: Cell prolif P493 72 h IC50; P493 cells, 72 h

Compound	IC50 [nM]
O=C(Nc1nnc(CCSCCc2nnc(NC(=O)c3ccccc3)s2)s1)c1ccccc1 [Compound 2]	630
COc1ccc(C(=O)Nc2nnc(CCSCCc3nnc(NC(=O)c4ccc(OC)cc4)s3)s2)cc1 [Compound 3]	> 50000
CC(=O)Nc1nnc(CCSCCc2nnc(NC(C)=O)s2)s1 [Compound 13]	12000
